The source of these data is patent publication US9908897B2, “Spirocyclic derivatives” (CHRONOS THERAPEUTICS LIMITED, priority 2014, dated 2018).

The target in series [1] is human dopamine transporter (DAT) (Homo sapiens (Human), UniProt Q01959). The series can be described thus: Scintillation Proximity Assay (SPA) competition binding, human DAT. Conditions: recombinant hDAT-CHO membranes, [3H]WIN-35,428. The method in brief:
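SPA binding on membranes from CHO cells stably expressing human DAT, with 5 nM [3H]WIN-35,428, WGA-PVT beads and 0.02% BSA in HEPES/NaCl/KCl buffer pH 7.4.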

The target in series [2] is human norepinephrine transporter (NET) (Homo sapiens (Human), UniProt P23975). The series can be described thus: Scintillation Proximity Assay (SPA) competition binding, human NET. The note with it: recombinant hNET-CHO membranes, [3H]nisoxetine.
Series [3] has as its target human serotonin transporter (SERT) (Homo sapiens (Human), UniProt P31645). The series can be described thus: Scintillation Proximity Assay (SPA) competition binding, human SERT. Conditions: recombinant hSERT-CHO membranes, [3H]citalopram.
For series [4], the target named is human ERG potassium channel (hERG) (Homo sapiens (Human), UniProt Q12809). The series can be described thus: hERG tail current recording, Rapid ICE automated patch-clamp. Conditions: HEK293 cells stably transfected with hERG. The series is classed as cell-based. The procedure:
Measure of the Effect on hERG Channel by Tail Current Recording Using In Vitro Rapid ICE™
The potency of the compounds of the invention in inhibiting human ERG potassium channel (hERG) tail current is assessed in a recombinant HEK293 cell line stably transfected with hERG cDNA using Rapid ICE™ (Rapid Ion Channel Electrophysiology) assay. Rapid ICE™ is an automated patch-clamp assay utilizing the PatchXpress 7000A system (Molecular Devices Corporation) or the QPatch HTX system (Sophion Bioscience A/S).
Briefly cells are cultivated for 24 to 72 hours before recordings in minimum essential medium supplemented with 10% FBS, 1% non-essential amino acids, 1% sodium pyruvate, 2 mM L-glutamine. The day of the experiment cells are detached with TrypLE and prepared to be loaded on the instrument. For PatchXpress cells are finally resuspended in 150 μl of Extracellular Buffer whereas for QPatch cells are resuspended in 7 ml Serum-Free Media containing 25 mM Hepes and Soybean trypsin inhibitor and immediately placed in the cell storage tank of the machine. The composition of the Extracellular Buffer is (mM): NaCl 137; KCl 4; CaCl2 1.8; MgCl2 1.0; D-glucose 10; N 2 hydroxyethylpiperazine-N′-2-ethanesulfonic acid (HEPES) 10; pH 7.4 with 1 M NaOH. The composition of the pipette solution is (mM): KCl 130; MgCl2 1.0; Ethylene glycol-bis(β-aminoethyl ether)-N,N,N′,N′-tetraacetic acid (EGTA) 5; MgATP 5; HEPES 10; pH 7.2 with 1 M KOH. The voltage protocol includes the following steps: step from −80 mV to −50 mV for 200 ms, +20 mV for 4.8 s, step to −50 mV for 5 s then step to the holding potential of −80 mV. Compounds of the invention are dissolved in DMSO and diluted in Extracellular Buffer to achieve final test concentrations (0.1, 1 and 10 μM) in 0.1% DMSO. The voltage protocol is run and recorded continuously during the experiment. The vehicle, corresponding to 0.1% DMSO in Extracellular Buffer, is then applied for 3 min followed by the test substance in triplicate. The standard combined exposure time is 5 min. The average of tail current amplitude values recorded from 4 sequential voltage pulses is used to calculate for each cell the effect of the test substance by calculating the residual current (% control) compared with vehicle pre-treatment. Data are reported as % inhibition for each concentration tested and IC50 values are estimated using DataXpress or QPatch software. At least two cells are tested, more if results diverge.

human serotonin transporter (SERT), sequence (P31645 whole entry): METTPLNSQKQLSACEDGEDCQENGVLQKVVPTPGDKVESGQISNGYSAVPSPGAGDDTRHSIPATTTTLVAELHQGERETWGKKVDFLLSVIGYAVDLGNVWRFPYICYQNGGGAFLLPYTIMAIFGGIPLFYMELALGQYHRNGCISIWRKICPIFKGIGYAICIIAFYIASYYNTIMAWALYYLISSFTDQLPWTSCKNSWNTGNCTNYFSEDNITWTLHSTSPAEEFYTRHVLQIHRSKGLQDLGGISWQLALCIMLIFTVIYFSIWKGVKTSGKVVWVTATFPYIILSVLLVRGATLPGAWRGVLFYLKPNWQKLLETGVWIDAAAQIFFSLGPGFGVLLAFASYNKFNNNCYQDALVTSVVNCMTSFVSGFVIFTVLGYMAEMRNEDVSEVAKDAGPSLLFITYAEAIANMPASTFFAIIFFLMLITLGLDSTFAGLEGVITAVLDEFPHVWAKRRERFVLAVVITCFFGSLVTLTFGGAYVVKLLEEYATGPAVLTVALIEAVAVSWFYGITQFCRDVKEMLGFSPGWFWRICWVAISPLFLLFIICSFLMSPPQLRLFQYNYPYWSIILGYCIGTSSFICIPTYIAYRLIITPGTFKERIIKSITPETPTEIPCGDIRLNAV
human norepinephrine transporter (NET), sequence (P23975 whole entry): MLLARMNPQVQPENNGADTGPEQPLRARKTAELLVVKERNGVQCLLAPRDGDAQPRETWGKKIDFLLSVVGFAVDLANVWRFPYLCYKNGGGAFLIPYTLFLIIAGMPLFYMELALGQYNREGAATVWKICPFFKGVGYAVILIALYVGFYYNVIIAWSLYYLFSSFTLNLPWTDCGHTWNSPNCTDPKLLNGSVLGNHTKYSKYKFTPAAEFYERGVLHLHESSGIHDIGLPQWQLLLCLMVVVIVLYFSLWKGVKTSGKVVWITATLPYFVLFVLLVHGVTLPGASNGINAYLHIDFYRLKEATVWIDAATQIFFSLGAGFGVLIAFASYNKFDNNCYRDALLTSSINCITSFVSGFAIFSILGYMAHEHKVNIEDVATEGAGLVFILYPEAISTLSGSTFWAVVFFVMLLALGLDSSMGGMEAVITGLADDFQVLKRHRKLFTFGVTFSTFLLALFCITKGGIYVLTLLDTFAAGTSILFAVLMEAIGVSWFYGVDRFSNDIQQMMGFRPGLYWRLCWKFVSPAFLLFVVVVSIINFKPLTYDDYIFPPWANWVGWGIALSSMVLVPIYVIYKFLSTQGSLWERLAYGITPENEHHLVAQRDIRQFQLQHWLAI
human dopamine transporter (DAT), sequence (Q01959 whole entry): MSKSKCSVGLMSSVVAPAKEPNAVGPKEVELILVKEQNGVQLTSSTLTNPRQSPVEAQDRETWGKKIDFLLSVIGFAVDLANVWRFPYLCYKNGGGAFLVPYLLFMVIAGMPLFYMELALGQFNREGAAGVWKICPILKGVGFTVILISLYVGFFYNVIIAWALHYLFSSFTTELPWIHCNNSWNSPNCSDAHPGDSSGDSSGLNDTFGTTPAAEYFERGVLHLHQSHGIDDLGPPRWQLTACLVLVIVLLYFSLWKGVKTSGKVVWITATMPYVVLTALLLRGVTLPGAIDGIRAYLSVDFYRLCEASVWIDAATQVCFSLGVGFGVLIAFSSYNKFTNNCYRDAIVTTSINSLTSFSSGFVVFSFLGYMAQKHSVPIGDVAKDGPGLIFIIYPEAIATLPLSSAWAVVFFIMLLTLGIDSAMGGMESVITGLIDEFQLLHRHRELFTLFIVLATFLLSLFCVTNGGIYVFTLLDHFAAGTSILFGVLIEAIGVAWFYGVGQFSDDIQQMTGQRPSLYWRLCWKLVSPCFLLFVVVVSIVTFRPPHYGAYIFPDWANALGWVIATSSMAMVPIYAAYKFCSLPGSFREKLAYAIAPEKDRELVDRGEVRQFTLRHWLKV
human ERG potassium channel (hERG), sequence (Q12809 whole entry): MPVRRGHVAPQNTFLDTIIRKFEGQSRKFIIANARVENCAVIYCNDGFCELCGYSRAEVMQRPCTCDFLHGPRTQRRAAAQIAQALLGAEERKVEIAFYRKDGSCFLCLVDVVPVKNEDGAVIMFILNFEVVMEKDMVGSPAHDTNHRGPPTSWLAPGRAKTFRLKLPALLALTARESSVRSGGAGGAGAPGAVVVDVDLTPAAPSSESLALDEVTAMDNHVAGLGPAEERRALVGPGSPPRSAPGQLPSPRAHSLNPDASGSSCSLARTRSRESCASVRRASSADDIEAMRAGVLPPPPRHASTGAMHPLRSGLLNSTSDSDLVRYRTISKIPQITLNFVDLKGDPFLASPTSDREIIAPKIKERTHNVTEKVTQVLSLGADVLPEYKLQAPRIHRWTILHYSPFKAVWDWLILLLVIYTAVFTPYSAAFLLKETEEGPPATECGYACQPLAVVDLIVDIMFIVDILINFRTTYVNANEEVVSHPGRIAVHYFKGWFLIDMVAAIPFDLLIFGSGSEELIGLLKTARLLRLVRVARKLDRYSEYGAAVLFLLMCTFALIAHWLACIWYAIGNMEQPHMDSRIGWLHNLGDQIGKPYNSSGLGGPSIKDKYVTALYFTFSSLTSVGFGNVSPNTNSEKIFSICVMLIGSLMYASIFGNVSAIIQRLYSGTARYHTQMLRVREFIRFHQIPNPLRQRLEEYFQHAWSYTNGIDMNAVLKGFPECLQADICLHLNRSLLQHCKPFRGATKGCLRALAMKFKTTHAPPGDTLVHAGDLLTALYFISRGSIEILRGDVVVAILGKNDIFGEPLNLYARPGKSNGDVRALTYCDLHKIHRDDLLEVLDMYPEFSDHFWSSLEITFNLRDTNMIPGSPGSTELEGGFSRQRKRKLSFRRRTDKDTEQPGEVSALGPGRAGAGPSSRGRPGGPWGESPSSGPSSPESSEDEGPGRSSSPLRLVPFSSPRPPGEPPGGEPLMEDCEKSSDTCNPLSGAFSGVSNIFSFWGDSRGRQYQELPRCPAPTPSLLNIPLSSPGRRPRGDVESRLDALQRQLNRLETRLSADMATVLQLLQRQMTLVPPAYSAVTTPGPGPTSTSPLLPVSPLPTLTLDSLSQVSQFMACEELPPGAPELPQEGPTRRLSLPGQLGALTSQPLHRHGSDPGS

On to `Fc1cccc(Oc2cc(N3CCC4(CC3)CNCCO4)ccc2F)c1` [Example 11, 9-[4-fluoro-3-(3-fluorophenoxy)phenyl]-1-oxa-4,9-diazaspiro[5.5]undecane], for which the “pIC50 DAT” value in series [1] stood at 6.78. Also, the “pIC50 NET” value in series [2] came out at 5.72. The “pIC50 SERT” value in series [3] was found to be 6.22. Further, the “pIC50 hERG” value in series [4] is reported as 6.5.
With `Fc1cccc(Oc2cc(F)c(F)c(N3CCC4(CC3)CNCCO4)c2)c1` [Example 13, 9-[2,3-difluoro-5-(3-fluorophenoxy)phenyl]-1-oxa-4,9-diazaspiro[5.5]undecane], in series [1], the “pIC50 DAT” value is listed as 8.38. In addition, the “pIC50 NET” value in series [2] turned out to be 6.74. In series [3], the “pIC50 SERT” value stood at 6.33. Besides, the “pIC50 hERG” value in series [4] was found to be 5.6.
Take `Fc1c(Oc2ccccc2)cccc1N1CCC2(CC1)CNCCO2` [Example 17, 9-(2-fluoro-3-phenoxyphenyl)-1-oxa-4,9-diazaspiro[5.5]undecane]: in series [1], the “pIC50 DAT” value amounted to 8.42. The “pIC50 NET” value in series [2] was determined as 6.46. Also, the “pIC50 SERT” value in series [3] was determined as 5.65. The “pIC50 hERG” value in series [4] is reported as 5.4.
Taken in the same sequence, the figures for `Fc1cccc(Oc2cccc(N3CCC4(CC3)CNCCO4)c2F)c1` [Example 19, 9-[2-fluoro-3-(3-fluorophenoxy)phenyl]-1-oxa-4,9-diazaspiro[5.5]undecane] were 8.64, 7.01, 5.99 and 5.4.
Turning to `Fc1cccc(Oc2cc(F)cc(N3CCC4(CC3)CNCCO4)c2F)c1` [Example 21, 9-[2,5-difluoro-3-(3-fluorophenoxy)phenyl]-1-oxa-4,9-diazaspiro[5.5]undecane], the “pIC50 DAT” value in series [1] was found to be 9.11. Further, in series [2], the “pIC50 NET” value was 7.49. In addition, the “pIC50 SERT” value in series [3] came out at 6.48. Moreover, the “pIC50 hERG” value in series [4] amounted to 5.4.
As for `N#Cc1cc(Oc2ccccc2)cc(N2CCC3(CC2)CNCCO3)c1` [Example 25, 3-{1-oxa-4,9-diazaspiro[5.5]undecan-9-yl}-5-phenoxybenzonitrile], in series [1], the “pIC50 DAT” value is 8.66. Further, the “pIC50 NET” value in series [2] came to 7.19. In series [3], the “pIC50 SERT” value is 7.43. In series [4], the “pIC50 hERG” value is 6.1.
Regarding `Cl.Fc1cccc(Oc2cc(C(F)(F)F)cc(N3CCC4(CC3)CNCCO4)n2)c1` [Example 37, 9-[6-(3-fluorophenoxy)-4-(trifluoromethyl)pyridin-2-yl]-1-oxa-4,9-diazaspiro[5.5]undecane hydrochloride], in series [1], the “pIC50 DAT” value is recorded as 8.86. The “pIC50 NET” value in series [2] is reported as 7.07. Besides, the “pIC50 SERT” value in series [3] came out at 5.33. The “pIC50 hERG” value in series [4] amounted to 5.9.
With `Cl.Fc1cccc(Oc2cncc(N3CCC4(CC3)CNCCO4)n2)c1` [Example 41, 9-[6-(3-fluorophenoxy)pyrazin-2-yl]-1-oxa-4,9-diazaspiro[5.5]undecane hydrochloride], the “pIC50 DAT” value in series [1] stood at 7.44. In addition, in series [2], the “pIC50 NET” value stood at 5.33. Besides, the “pIC50 SERT” value in series [3] worked out at 6.02. For the same compound, in series [4], the “pIC50 hERG” value is listed as 5.9.
Turning to `Cl.Fc1cccc(Oc2ccnc(N3CCC4(CC3)CNCCO4)n2)c1` [Example 42, 9-[4-(3-fluorophenoxy)pyrimidin-2-yl]-1-oxa-4,9-diazaspiro[5.5]undecane hydrochloride], in series [1], the “pIC50 DAT” value was 7.33. In addition, in series [2], the “pIC50 NET” value was 5.64. Besides, the “pIC50 SERT” value in series [3] amounted to 4.69. Further, the “pIC50 hERG” value in series [4] is recorded as 6.4.
With `Cc1cc(Oc2ccccc2)nc(N2CCC3(CC2)CNCCO3)n1.Cl` [Example 43, 9-(4-methyl-6-phenoxypyrimidin-2-yl)-1-oxa-4,9-diazaspiro[5.5]undecane hydrochloride], in series [1], the “pIC50 DAT” value turned out to be 8.01. In addition, the “pIC50 NET” value in series [2] is recorded as 6.11. Also, the “pIC50 SERT” value in series [3] was found to be 4.42. In addition, in series [4], the “pIC50 hERG” value is listed as 5.7.
As to `Cc1cc(Oc2cccc(F)c2)nc(N2CCC3(CC2)CNCCO3)n1.Cl` [Example 44, 9-[4-(3-fluorophenoxy)-6-methylpyrimidin-2-yl]-1-oxa-4,9-diazaspiro[5.5]undecane hydrochloride], the “pIC50 DAT” value in series [1] was 8.29. In series [2], the “pIC50 NET” value was 6.65. In series [3], the “pIC50 SERT” value came to 4.80. For the same compound, the “pIC50 hERG” value in series [4] turned out to be 6.0.
For the compound `Cc1cccc(Oc2cc(C)nc(N3CCC4(CC3)CNCCO4)n2)c1.Cl` [Example 45, 9-[4-methyl-6-(3-methylphenoxy)pyrimidin-2-yl]-1-oxa-4,9-diazaspiro[5.5]undecane hydrochloride], in series [1], the “pIC50 DAT” value was 7.59. Further, in series [2], the “pIC50 NET” value was 5.54. Further, in series [3], the “pIC50 SERT” value was 4.83. In addition, the “pIC50 hERG” value in series [4] is 5.7.
As to `Cc1cc(Oc2cccc(C#N)c2)nc(N2CCC3(CC2)CNCCO3)n1.Cl` [Example 46, 3-[(6-methyl-2-{1-oxa-4,9-diazaspiro[5.5]undecan-9-yl}pyrimidin-4-yl)oxy]benzonitrile hydrochloride], in series [1], the “pIC50 DAT” value is recorded as 8.03. Further, in series [2], the “pIC50 NET” value worked out at 5.85. The “pIC50 SERT” value in series [3] was determined as 6.11. In addition, the “pIC50 hERG” value in series [4] is recorded as 6.6.
On to `Cc1cc(Oc2cccc(C(F)(F)F)c2)nc(N2CCC3(CC2)CNCCO3)n1.Cl` [Example 48, 9-{4-methyl-6-[3-(trifluoromethyl)phenoxy]pyrimidin-2-yl}-1-oxa-4,9-diazaspiro[5.5]undecane hydrochloride], for which the “pIC50 DAT” value in series [1] is reported as 6.50. Also, the “pIC50 NET” value in series [2] worked out at 5.48. Moreover, in series [3], the “pIC50 SERT” value stood at 5.58. Also, the “pIC50 hERG” value in series [4] came to 5.6.
`COc1cccc(Oc2cc(C)nc(N3CCC4(CC3)CNCCO4)n2)c1.Cl` [Example 49, 9-[4-(3-methoxyphenoxy)-6-methylpyrimidin-2-yl]-1-oxa-4,9-diazaspiro[5.5]undecane hydrochloride]: in series [1], the “pIC50 DAT” value stood at 6.92. Besides, the “pIC50 NET” value in series [2] was determined as 5.45. Moreover, the “pIC50 SERT” value in series [3] was 4.67. For the same compound, the “pIC50 hERG” value in series [4] was determined as 5.5.
For `Cl.FC(F)(F)c1cc(Oc2ccccc2)nc(N2CCC3(CC2)CNCCO3)n1` [Example 55, 9-[4-phenoxy-6-(trifluoromethyl)pyrimidin-2-yl]-1-oxa-4,9-diazaspiro[5.5]undecane hydrochloride], in series [1], the “pIC50 DAT” value is reported as 8.19. In addition, in series [2], the “pIC50 NET” value was 6.12. Also, the “pIC50 SERT” value in series [3] was found to be 6.14. Also, the “pIC50 hERG” value in series [4] was found to be 5.7.
Regarding `Cl.Fc1ccccc1Oc1cc(C(F)(F)F)nc(N2CCC3(CC2)CNCCO3)n1` [Example 57, 9-[4-(2-fluorophenoxy)-6-(trifluoromethyl)pyrimidin-2-yl]-1-oxa-4,9-diazaspiro[5.5]undecane hydrochloride], the “pIC50 DAT” value in series [1] was found to be 7.89. For the same compound, the “pIC50 NET” value in series [2] worked out at 5.94. Besides, in series [3], the “pIC50 SERT” value is recorded as 6.18. The “pIC50 hERG” value in series [4] is listed as 5.7.
In the case of `Cl.N#Cc1cccc(Oc2cc(C(F)(F)F)nc(N3CCC4(CC3)CNCCO4)n2)c1` [Example 59, 3-[(2-{1-oxa-4,9-diazaspiro[5.5]undecan-9-yl}-6-(trifluoromethyl)pyrimidin-4-yl)oxy]benzonitrile hydrochloride], in series [1], the “pIC50 DAT” value is given as 8.01. Further, in series [2], the “pIC50 NET” value turned out to be 5.67. Further, the “pIC50 SERT” value in series [3] was determined as 5.15. The “pIC50 hERG” value in series [4] turned out to be 7.0.
Taken in the same sequence, the figures for `Cl.N#Cc1cc(Oc2cccc(F)c2)nc(N2CCC3(CC2)CNCCO3)n1` [Example 62, 6-(3-fluorophenoxy)-2-{1-oxa-4,9-diazaspiro[5.5]undecan-9-yl}pyrimidine-4-carbonitrile hydrochloride] were 8.01, 6.36, 5.83 and 6.5.
Taken in the same sequence, the figures for `Cl.Fc1cccc(Oc2cc(C3CC3)nc(N3CCC4(CC3)CNCCO4)n2)c1` [Example 65, 9-[4-cyclopropyl-6-(3-fluorophenoxy)pyrimidin-2-yl]-1-oxa-4,9-diazaspiro[5.5]undecane hydrochloride] were 8.79, 7.08, 5.44 and 5.7.
